Data reported in US12590093B2, “Indolo[2′,3′:3,4]pyrido[2,1-b]quinazoline compound and use thereof” (INSTITUTE OF MEDICINAL BIOTECHNOLOGY CHINESE ACADEMY OF …, priority 2019, dated 2026).
“Also recorded” adds a separate entry of the source.

Tests used:
SR-BI = SR-BI up-regulation, luciferase reporter in SR-BI-LUC HepG2 cells; type: cell-based; conditions: Homo sapiens, 18 h, maximum up-regulation of luciferase activity versus DMSO, read-out: SR-BI max
Procedure: Experiments were conducted to detect whether the compounds of the disclosure can pharmacologically up-regulate the expression of ABCA1 and SR-BI. Firstly, ABCA1P-LUC HepG2 cells or SR-BI-LUC HepG2 cells in logarithmic growth phase were digested, diluted in cell culture medium, and counted. Cells were seeded into 96-well plates at a density of 5×10^5/ml (100 μL of the single-cell suspension per well). After cells fully adhered (about 6 h), the medium containing 10% FBS was removed, and the cells were gently washed with PBS. Serum free MEM-EBSS medium (200 μL per test well) and 2 μL of the compounds to be tested (at a final concentration of 10 μg/mL) were added to each test well, and meanwhile, DMSO at a corresponding concentration was added to the control well. After 18-24 h, the medium was removed. Cell Luciferase activity was measured by a method as described in the Luciferase Assay System. By optimizing the final concentration of DMSO, the treatment time of the compounds on the cells and the number of cells seeded into each well during the screening, the final screening conditions were determined as follows: each well is seeded with 5×10^4 cells, DMSO is added at a final concentration of 1%, and the sample is treated for 18 h.
The ratio of change of luciferase activity is calculated with the following formula: Ratio of change (%)=A/B×100;
wherein A is the luciferase activity (RLU) measured after the compound to be tested is added, and B is the luciferase activity (RLU) measured after the blank control (DMSO) is added. The luciferase activity of cells in each well was measured, and the dose-effect relationship between the concentration of the compound and the ratio of change of the luciferase activity was determined to calculate the EC50.

LXRα = target: T1, LXRα (Homo sapiens, UniProt Q13133); assay: Nuclear receptor reporter gene transient transfection (pBIND-hLXRs-LBD) in HepG2 cells, LXRα; type: cell-based
T1 construct: expressed in transfected cells; host or cells: HepG2
T1 sequence (Q13133 209-447 limits assumed): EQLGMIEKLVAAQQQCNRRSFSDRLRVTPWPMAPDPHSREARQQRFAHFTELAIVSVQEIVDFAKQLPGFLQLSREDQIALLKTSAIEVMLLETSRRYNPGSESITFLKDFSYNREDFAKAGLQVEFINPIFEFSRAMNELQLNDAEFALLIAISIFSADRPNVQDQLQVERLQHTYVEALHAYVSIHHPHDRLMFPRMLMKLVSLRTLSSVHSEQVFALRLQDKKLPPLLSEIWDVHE
Procedure: (§1) HepG2 cells in logarithmic growth phase were digested, seeded into the white/clear 96-well plate at a density of 5×10^4 cells/well/100 μL until the cells grew to about 90% confluence and in good condition. 0.5 μL liposome (Lipofectamine® 2000) diluted with blank medium to 25 μL per well and incubated at room temperature for 5 min. The corresponding plasmids DNA (nuclear receptor plasmid:Gal4=1:10) were diluted in blank DMEM medium to 25 μL/well (mixing of two plasmids), then mixed evenly with the diluted liposome, and incubated for 20 min at 37° C. The DNA-liposome complex (50 μL per well) was added with the DMEM complete medium (100 μL per well) and mixed thoroughly to obtain a DNA-liposome complex cell culture. The cell medium was discarded, and replaced with the DNA-liposome complex cell culture (150 μL/well) (37° C., 5% CO2). After 6 h, the DNA-liposome complex cell culture medium was discarded, and 200 μL serum-free DMEM medium containing the compound at an appropriate concentration was added to each test well, and cultured for 18-24 h. The cell Luciferase activity was measured by the method as described in the Luciferase Assay System.

LXRβ = target: T2, LXRβ (Homo sapiens, UniProt P55055); assay: Nuclear receptor reporter gene transient transfection (pBIND-hLXRs-LBD) in HepG2 cells, LXRβ; type: cell-based
T2 construct: expressed in transfected cells; host or cells: HepG2
T2 sequence (P55055 222-460 limits assumed): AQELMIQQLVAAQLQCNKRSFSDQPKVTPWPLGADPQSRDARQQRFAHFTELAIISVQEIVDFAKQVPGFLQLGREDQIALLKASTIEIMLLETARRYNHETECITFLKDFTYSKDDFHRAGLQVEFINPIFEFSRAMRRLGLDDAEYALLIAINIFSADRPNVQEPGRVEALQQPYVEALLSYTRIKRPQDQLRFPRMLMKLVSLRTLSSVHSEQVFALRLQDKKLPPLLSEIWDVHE
Procedure: as §1

PPARα = target: T3, PPARα (Homo sapiens, UniProt Q07869); assay: Nuclear receptor reporter gene transient transfection (pBIND-hPPARs-LBD) in HepG2 cells, PPARα; type: cell-based; conditions: FIG. 2, result in words
T3 construct: expressed in transfected cells; host or cells: HepG2
T3 sequence (Q07869 239-466 limits assumed): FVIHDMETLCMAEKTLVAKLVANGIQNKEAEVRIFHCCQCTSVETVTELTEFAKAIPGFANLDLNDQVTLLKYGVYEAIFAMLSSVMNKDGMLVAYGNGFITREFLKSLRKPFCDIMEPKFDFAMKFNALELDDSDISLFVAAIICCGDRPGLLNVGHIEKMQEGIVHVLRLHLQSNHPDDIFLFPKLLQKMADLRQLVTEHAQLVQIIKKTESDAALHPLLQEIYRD
Procedure: as §1

PPARδ = target: T4, PPARδ (Homo sapiens, UniProt Q03181); assay: Nuclear receptor reporter gene transient transfection (pBIND-hPPARs-LBD) in HepG2 cells, PPARδ; type: cell-based; conditions: FIG. 2, result in words
T4 construct: expressed in transfected cells; host or cells: HepG2
T4 sequence (Q03181 211-439 limits assumed): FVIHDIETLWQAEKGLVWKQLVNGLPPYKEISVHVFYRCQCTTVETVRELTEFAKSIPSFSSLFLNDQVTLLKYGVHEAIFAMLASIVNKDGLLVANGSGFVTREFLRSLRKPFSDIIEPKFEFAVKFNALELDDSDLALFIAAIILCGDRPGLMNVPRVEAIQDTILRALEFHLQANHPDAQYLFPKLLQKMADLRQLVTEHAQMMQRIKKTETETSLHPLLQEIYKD
Procedure: as §1

ABCA1 = ABCA1 expression in RAW 264.7 cells by western-blot, with or without si-AMPK; type: cell-based, Murine
Procedure: Murine macrophages RAW 264.7 cells were subcultured about every 48 h. When the cells were approximately 100% confluent, the old culture medium was removed, and the cells were washed with PBS and digested with trypsin at an appropriate amount for about 2 min at RT. After the digestion solution was removed, the RPMI-1640 complete medium containing 10% FBS was added immediately to inhibit the activity of trypsin. The cells in the culture flask were repeatedly and gently blown with a curved straw, so that they were completely detached from the bottom of the flask and dispersed into the single-cell suspension. The cells were seeded into a new cell flask at a density of 1:4-1:6, and added with an appropriate amount of the complete medium. The flask was placed in an incubator and cultured at 37° C., 5% CO2. RAW264.7 cells were pretreated with si-AMPK (AMPK siRNA) for 24 h, and then treated with compound TR3 (1 μM) for 24 h. The expression of ABCA1 and AMPK was detected by western-blot.
The effect of TR3 on AMPK was detected by western-blot.

[1] = HepG2 cells, reporter gene, 18-24 h

LXRα max (LXRα; [1]): 1.36
LXRβ max (LXRβ; [1]): 1.42
Structure (SMILES): c1ccc2c(c1)CN1CCc3c([nH]c4ccccc34)C1=N2 [TR3, 5,7,8,13-tetrahydroindolo[2′,3′:3,4]pyrido[2,1-b]quinazoline]
maximal fold induction (SR-BI): 2.07
LXRα agonist activity (LXRα; result in words): showed agonist activity; also recorded: simultaneously activated PPARα/γ/δ and LXRα/β to a certain extent
LXRβ agonist activity (LXRβ; result in words): showed agonist activity; also recorded: simultaneously activated PPARα/γ/δ and LXRα/β to a certain extent
activation of PPARα (PPARα): simultaneously activated PPARα/γ/δ and LXRα/β to a certain extent
activation of PPARδ (PPARδ): simultaneously activated PPARα/γ/δ and LXRα/β to a certain extent
up-regulation of ABCA1 expression after addition of si-AMPK (ABCA1; RAW 264.7 cells pretreated with si-AMPK 24 h, then 1 μM for 24 h): inhibited by the addition of interfering RNA (si-AMPK)
expression of ABCA1 (ABCA1; RAW 264.7 cells, 1 μM, western-blot, FIG. 11): significantly up-regulated
